Test results from patent US11364299B2, “Non-addictive analgesic sustained-release drug delivery system and preparation method thereof” (LIPONT PHARMACEUTICALS INC., priority 2013, dated 2022).
Counter-ions that a name gives are not always drawn. Like-named read-outs stand apart in the source and are kept apart here.

Assays:
[1] = Formulation experiment for sustained-release formulation delivery system; assay type: physicochemical; conditions: for Solubility: in ethanol, benzyl alcohol, benzyl benzoate, and ethyl lactate
Text: Detailed experimental procedures were similar to those in Experimental Example 2. As shown in the experimental results, part of the drug delivery system combinations that may be used in the formula of the sustained-release formulation delivery system is as follows: […]

[2] = Solubility tests of ropivacaine free base and corresponding salts; assay type: physicochemical
Text: If a drug dissolved completely, addition of this drug was continued until saturation.

[3] = Compound compositions: dezocine and parecoxib in the drug delivery systems; assay type: physicochemical; conditions: prescribed compositions of Table IV; 25° C. and 4° C., about 24 h
[4] = In vitro dissolution stability of the drug formulations; assay type: physicochemical; conditions: compared with ropivacaine free base
[5] = Structural stability of ropivacaine sustained-release formulations (content determination); assay type: physicochemical; conditions: content determination after 30 days
[6] = cited from earlier work
patients = conditions: cited from earlier work
plasma proteins = conditions: concentration-dependent; cited from earlier work
[7] = Verification of the solubility of various local anesthetics in the sustained-release drug delivery system; assay type: physicochemical; conditions: 4° C., 24 hours, 15-20 mg/ml
Experimental: The 12 local anesthetics were each added into the selected drug delivery systems, and the dissolution process of the drugs was observed (norm: 15-20 mg/ml, observed at 25° C. for 24 hours with recordation; or observed at 4° C. for 24 hours with recordation).

[8] = in glyceryl monoacetate, 25° C.
[9] = in tetrahydrofurfuryl polyethylene glycol ether, 25° C.

**Q.** For CCCN1CCCC[C@H]1C(=O)Nc1c(C)cccc1C [Ropivacaine hydrochloride], which “solubility in mixed solvent” value ([1]; mixture of benzyl benzoate with one of ethanol and benzyl alcohol) is on record?
**A.** increased solubility

**Q.** And the Solubility ([2]; anhydrous ethanol, 25 °C, organic solvent or mixture, thermodynamic from solid, in anhydrous ethanol, read-out: Solubility)?
**A.** 95000 µg/mL

**Q.** And the Solubility ([2]; benzyl alcohol, 25 °C, organic solvent or mixture, thermodynamic from solid, in benzyl alcohol, read-out: Solubility)?
**A.** > 100000 µg/mL

**Q.** And the Solubility ([2]; benzyl benzoate, 25 °C, organic solvent or mixture, thermodynamic from solid, in benzyl benzoate, read-out: Solubility)?
**A.** 2500 µg/mL

**Q.** What about the Solubility ([2]; castor oil, 25 °C, oil or lipid, thermodynamic from solid, in castor oil, read-out: Solubility) of the same compound?
**A.** 1700 µg/mL

**Q.** And the Solubility ([2]; corn oil, 25 °C, oil or lipid, thermodynamic from solid, in corn oil, read-out: Solubility)?
**A.** 2500 µg/mL

**Q.** And the Solubility ([2]; ethyl lactate, 25 °C, organic solvent or mixture, thermodynamic from solid, in ethyl lactate, read-out: Solubility)?
**A.** 16500 µg/mL

**Q.** What about the Solubility ([2]; ethyl oleate, 25 °C, oil or lipid, thermodynamic from solid, in ethyl oleate, read-out: Solubility) of the same compound?
**A.** 2200 µg/mL

**Q.** What about the Solubility ([2]; glyceryl monoacetate, 25 °C, organic solvent or mixture, thermodynamic from solid, in glyceryl monoacetate, read-out: Solubility) of the same compound?
**A.** 30000 µg/mL

**Q.** And the Solubility ([2]; in benzyl alcohol, 25° C.)?
**A.** 140000 µg/mL

**Q.** What about the Solubility ([2]; olive oil, 25 °C, oil or lipid, thermodynamic from solid, in olive oil, read-out: Solubility) of the same compound?
**A.** 1700 µg/mL

**Q.** And the Solubility ([2]; sesame oil, 25 °C, oil or lipid, thermodynamic from solid, in sesame oil, read-out: Solubility)?
**A.** 2000 µg/mL

**Q.** What about the Solubility ([2]; soybean oil, 25 °C, oil or lipid, thermodynamic from solid, in soybean oil, read-out: Solubility) of the same compound?
**A.** 2000 µg/mL

**Q.** And the Solubility ([2]; tetrahydrofurfuryl polyethylene glycol ether, 25 °C, organic solvent or mixture, thermodynamic from solid, in tetrahydrofurfuryl polyethylene glycol ether, read-out: Solubility)?
**A.** 9000 µg/mL

**Q.** Which Solubility [1] does the source give for C[C@@]12CCCCC[C@@H](Cc3ccc(O)cc31)[C@@H]2N [dezocine] here?
**A.** good solubility

**Q.** And the Solubility [3]?
**A.** > 30000 µg/mL

**Q.** What does the source list for CCCN1CCCC[C@H]1C(=O)Nc1c(C)cccc1C.CS(=O)(=O)O [Ropivacaine methansulfonate]?
**A.** solubility in mixed solvent [1]: increased solubility; solubility in various prescribed compositions [4]: slightly poorer than that of ropivacaine free base; Solubility ([2]; in anhydrous ethanol, 25° C.): 320000 µg/mL; Solubility ([2]; in anhydrous ethanol, 25° C., listed as ropivacaine methansulfonate): exceeding 190 mg/ml; Solubility ([2]; in benzyl alcohol, 25° C.): 550000 µg/mL; Solubility ([2]; in benzyl alcohol, 25° C., listed as ropivacaine methansulfonate): exceeding 190 mg/ml; Solubility ([2]; in benzyl benzoate, 25° C.): 2000 µg/mL; Solubility ([2]; in castor oil, 25° C.): 2000 µg/mL; Solubility ([2]; in corn oil, 25° C.): 1700 µg/mL; Solubility ([2]; in ethyl lactate, 25° C.): 198000 µg/mL; Solubility ([2]; in ethyl lactate, 25° C., listed as ropivacaine methansulfonate): exceeding 190 mg/ml; Solubility ([2]; in ethyl oleate, 25° C.): 2000 µg/mL; Solubility [2, 8]: 50000 µg/mL; Solubility ([2]; in olive oil, 25° C.): 2000 µg/mL; Solubility ([2]; in sesame oil, 25° C.): 1700 µg/mL; Solubility ([2]; in soybean oil, 25° C.): 2500 µg/mL; Solubility [2, 9]: 13200 µg/mL

**Q.** For CCCN1CCCC[C@H]1C(=O)Nc1c(C)cccc1C [Ropivacaine free base], which “solubility in mixed solvent” value [1] is on record?
**A.** increased solubility

**Q.** And the “structural stability in various prescribed compositions” value [5]?
**A.** structurally stable and did not degrade

**Q.** What about the Solubility ([2]; in anhydrous ethanol, 25° C.) of the same compound?
**A.** 155000 µg/mL

**Q.** And the Solubility ([2]; in anhydrous ethanol, 25° C., listed as ropivacaine free base)?
**A.** exceeding 150 mg/ml

**Q.** What about the Solubility ([2]; in benzyl alcohol, 25° C.) of the same compound?
**A.** 225000 µg/mL

**Q.** And the Solubility ([2]; in benzyl alcohol, 25° C., listed as ropivacaine free base)?
**A.** exceeding 150 mg/ml

**Q.** And the Solubility ([2]; in benzyl benzoate, 25° C.)?
**A.** 70000 µg/mL

**Q.** What about the Solubility ([2]; in castor oil, 25° C.) of the same compound?
**A.** 17000 µg/mL

**Q.** And the Solubility ([2]; in corn oil, 25° C.)?
**A.** 9400 µg/mL

**Q.** And the Solubility ([2]; in ethyl lactate, 25° C.)?
**A.** 80000 µg/mL

**Q.** What about the Solubility ([2]; in ethyl oleate, 25° C.) of the same compound?
**A.** 14900 µg/mL

**Q.** And the Solubility [2, 8]?
**A.** 18000 µg/mL

**Q.** What about the Solubility ([2]; in olive oil, 25° C.) of the same compound?
**A.** 9800 µg/mL

**Q.** And the Solubility ([2]; in sesame oil, 25° C.)?
**A.** 11700 µg/mL

**Q.** What about the Solubility ([2]; in soybean oil, 25° C.) of the same compound?
**A.** 9600 µg/mL

**Q.** What about the Solubility [2, 9] of the same compound?
**A.** 39600 µg/mL

**Q.** For CCCN1CCCC[C@H]1C(=O)Nc1c(C)cccc1C [Ropivacaine, 1-propy 1-2,6-pipeco loxylidide laevo isomer], which “epidural absorption, half-time of fast phase” value ([6]; epidural) is on record?
**A.** 14 min

**Q.** What about the “epidural absorption, half-time of slow phase” value ([6]; epidural) of the same compound?
**A.** 4 h

**Q.** And the steady distribution volume ([6]; in vivo)?
**A.** 47 L

**Q.** And the “cardiac toxicity and safety” value (patients; 0.1% ropivacaine versus 0.1% bupivacaine, elderly patients)?
**A.** relatively lower cardiac toxicity and higher safety in use

**Q.** And the “analgesic effect of continuous epidural infusion” value (patients; 0.1% ropivacaine, elderly patients after lower limb surgeries (Zonglin YANG et al.))?
**A.** comparable to that with 0.1% bupivacaine

**Q.** And the “transaxillary brachial plexus block” value (patients; 0.375% ropivacaine versus 0.25% bupivacaine (Qihong ZHAO et al.))?
**A.** faster onset, better efficacy, and fewer adverse effects as compared to 0.25% bupivacaine

**Q.** And the “local infiltration anesthetic analgesia” value (patients; human, in vivo)?
**A.** substantial and lasting analgesic effect with few adverse reactions

**Q.** And the analgesic duration (patients; human, one clinical injection)?
**A.** about 8 hours

**Q.** And the “gynecologic post-operative patient-controlled analgesia” value (patients; versus bupivacaine (Shunfu CHEN))?
**A.** more suitable for patient-controlled analgesic local anesthesia in gynecologic post-operative patients than bupivacaine

**Q.** What about the “association with plasma proteins” value (plasma proteins) of the same compound?
**A.** 94%

**Q.** Which “solubility in the ethyl oleate/soybean oil drug delivery system” value [7] does the source give for CCN(CC)CCOC(=O)c1ccc(N)cc1 [procaine] here?
**A.** slightly precipitated

**Q.** For CCCCNc1ccc(C(=O)OCCN(C)C)cc1 [tetracaine], which “solubility in the ethyl oleate/soybean oil drug delivery system” value [7] is on record?
**A.** slightly precipitated

**Q.** Which Solubility [1] does the source give for CCC(=O)NS(=O)(=O)c1ccc(-c2c(-c3ccccc3)noc2C)cc1 [parecoxib] here?
**A.** good solubility

**Q.** And the Solubility [3]?
**A.** > 20000 µg/mL
